Experimental data reported in publication PMC9948161 (ACS Omega, 2023).

How the values were obtained:
[1] = system: MCF-7 breast cancer cell line; test: MTT in vitro antiproliferative assay; assay type: cell-based; details: Homo sapiens, MCF7, 24 h, read-out: IC50 on the human MCF-7 cell line
VEGFR2 kinase = VEGFR2 kinase (Homo sapiens, UniProt P35968); test: biochemical
[2] = system: human red blood cell (HRBC) membrane; test: HRBC membrane stabilization assay; assay type: cell-based; details: Erythrocyte, read-out: percentage of inhibition of hemolysis (HRBC membrane stabilization)
MCF-7 cells [3] = test: Cell cycle analysis by propidium iodide flow cytometry; assay type: cell-based, human; details: MCF-7, 1.29 μM, 24 h; untreated control 2.4
MCF-7 cells [4] = test: Wound healing; assay type: cell-based, human; details: MCF-7, IC50 concentration

Chain of VEGFR2 kinase (P35968 20-1356): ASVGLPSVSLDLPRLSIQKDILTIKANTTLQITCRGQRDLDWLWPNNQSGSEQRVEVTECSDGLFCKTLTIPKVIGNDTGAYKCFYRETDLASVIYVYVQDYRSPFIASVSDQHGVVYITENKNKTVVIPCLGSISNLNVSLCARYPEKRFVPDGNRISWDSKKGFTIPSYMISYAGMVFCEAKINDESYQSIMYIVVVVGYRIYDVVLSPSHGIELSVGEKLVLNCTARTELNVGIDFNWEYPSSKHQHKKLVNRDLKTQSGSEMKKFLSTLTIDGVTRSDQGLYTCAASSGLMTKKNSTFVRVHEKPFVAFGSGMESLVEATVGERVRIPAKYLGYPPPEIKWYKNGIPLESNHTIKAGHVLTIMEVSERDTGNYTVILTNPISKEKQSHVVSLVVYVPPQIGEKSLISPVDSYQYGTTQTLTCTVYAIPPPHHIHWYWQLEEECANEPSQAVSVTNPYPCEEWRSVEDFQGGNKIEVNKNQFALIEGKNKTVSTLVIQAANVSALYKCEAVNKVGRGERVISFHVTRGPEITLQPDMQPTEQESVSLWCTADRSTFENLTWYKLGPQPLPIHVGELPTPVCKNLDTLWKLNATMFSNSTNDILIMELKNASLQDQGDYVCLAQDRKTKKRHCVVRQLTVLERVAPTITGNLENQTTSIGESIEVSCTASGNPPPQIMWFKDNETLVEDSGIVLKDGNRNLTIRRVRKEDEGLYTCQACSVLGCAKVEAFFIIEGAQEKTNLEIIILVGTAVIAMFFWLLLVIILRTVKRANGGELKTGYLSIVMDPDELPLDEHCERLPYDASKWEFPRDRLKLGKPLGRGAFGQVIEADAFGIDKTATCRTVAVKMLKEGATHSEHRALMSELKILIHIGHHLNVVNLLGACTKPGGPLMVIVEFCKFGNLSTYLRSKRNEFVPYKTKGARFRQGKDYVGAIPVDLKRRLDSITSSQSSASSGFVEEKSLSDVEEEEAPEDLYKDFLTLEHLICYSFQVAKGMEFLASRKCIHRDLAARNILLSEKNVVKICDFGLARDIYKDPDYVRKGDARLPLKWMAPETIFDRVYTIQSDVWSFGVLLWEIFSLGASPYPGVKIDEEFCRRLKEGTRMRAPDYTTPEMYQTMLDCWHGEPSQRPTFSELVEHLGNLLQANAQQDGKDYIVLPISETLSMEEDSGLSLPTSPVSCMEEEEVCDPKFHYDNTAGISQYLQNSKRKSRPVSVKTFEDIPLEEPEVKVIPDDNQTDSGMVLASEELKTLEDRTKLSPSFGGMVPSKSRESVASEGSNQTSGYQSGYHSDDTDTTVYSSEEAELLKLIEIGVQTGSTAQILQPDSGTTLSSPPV

IC50 [1] [µM] | IC50 (VEGFR2 kinase) [µM] | Compound | other results
4.98 | 0.135 | O=C(CC1Sc2ccccc2NC1=O)c1ccc(Cl)c(Cl)c1 (stereo not shown) [Compound 2e, 2-(2-(3,4-Dichlorophenyl)-2-oxoethyl)-2H-benzo[b][1,4]thiazin-3(4H)-one] | –
1.29 | – | O=C(CC1Sc2ccccc2NC1=O)c1ccc(Cl)cc1 (stereo not shown) [Compound 2c, 2-(2-(4-Chlorophenyl)-2-oxoethyl)-2H-benzo[b] [1, 4]thiazin-3(4H)-one] | population of cells at G2/M phase (MCF-7 cells [3]): 1%; inhibition at 125 µg/mL [2]: 31.6%; inhibition at 250 µg/mL [2]: 49.8%; inhibition at 500 µg/mL [2]: 75.4%; wound healing percentage (percentage wound healing area) at 0 h (MCF-7 cells [4]; 0 h, control 66.42 ± 1.20): 66.63 ± 0.66%; reduction in the area of the wound (percentage wound healing area) after 24 h (MCF-7 cells [4]; 24 h, control 43.23 ± 1.71): 61.98 ± 1.44%
3.7 | 0.0972 | Cc1ccc(C(=O)CC2Sc3ccccc3NC2=O)cc1Cl (stereo not shown) [Compound 2f, 2-(2-(3-Chloro-4-methylphenyl)-2-oxoethyl)-2H-benzo[b][1,4]thiazin-3(4H)-one] | –
1.37 | 0.0593 | O=C(CC1Sc2ccccc2NC1=O)c1ccc(F)c(F)c1 (stereo not shown) [Compound 2b, 2-(2-(3,4-Difluorophenyl)-2-oxoethyl)-2H-benzo[b][1,4]thiazin-3(4H)-one] | –

Second part, the compound before the results:

Compound | IC50 [1] [µM] | IC50 (VEGFR2 kinase) [µM] | other results
CCOC(=O)CN1C(=O)C(CC(=O)c2ccc(F)c(F)c2)Sc2ccccc21 (stereo not shown) [Compound 3b, Ethyl 2-(2-(2-(3,4-Difluorophenyl)-2-oxoethyl)-3-oxo-2H-benzo [b][1,4]thiazin-4 (3H)-yl)acetate] | 4.5 | 0.236 | –
CCOC(=O)CN1C(=O)C(CC(=O)c2ccc(Cl)cc2)Sc2ccccc21 (stereo not shown) [Compound 3c, Ethyl 2-(2-(2-(4-Chlorophenyl)-2-oxoethyl)-3-oxo-2H-benzo[b][1,4]thiazin-4(3H)-yl)acetate] | 4.39 | – | inhibition at 125 µg/mL [2]: 27.4%; inhibition at 500 µg/mL [2]: 53.6%
O=C(CC1Sc2ccccc2NC1=O)c1ccc(F)cc1 (stereo not shown) [Compound 2a, 2-(2-(4-Fluorophenyl)-2-oxoethyl)-2H-benzo[b][1,4]thiazin-3(4H)-one] | 2.26 | 0.0741 | –
O=c1[nH]cc(F)c(=O)[nH]1 [5-fluorouracil, reference compound] | 7.79 | – | –
CCOC(=O)CN1C(=O)C(CC(=O)c2ccc(Br)cc2)Sc2ccccc21 (stereo not shown) [Compound 3d, Ethyl 2-(2-(2-(4-Bromophenyl)-2-oxoethyl)-3-oxo-2H-benzo[b][1,4]thiazin-4(3H)-yl)acetate] | 3.31 | – | –
CCOC(=O)CN1C(=O)C(CC(=O)c2ccc(F)cc2)Sc2ccccc21 (stereo not shown) [Compound 3a, Ethyl 2-(2-(2-(4-Fluorophenyl)-2-oxoethyl)-3-oxo-2H-benzo[b][1,4]thiazin-4(3H)-yl)acetate] | 5.19 | 0.632 | –
O=C(CC1Sc2ccccc2NC1=O)c1ccc(Br)cc1 (stereo not shown) [Compound 2d, 2-(2-(4-Bromophenyl)-2-oxoethyl)-2H-benzo[b][1,4]thiazin-3(4H)-one] | 2.3 | – | –
